Reference: US9796733B2, “Imidazo-pyrazine derivatives useful as soluble guanylate cyclase activators” (Merck Sharp & Dohme Corp., priority 2014, dated 2017)

Molecular target: T1, sGC α1/β1 heterodimer (Homo sapiens, UniProt Q02108+Q02153)
T1 construct: expressed in transfected cells; host or cells: CHO-K1 (clone #7, CHO-K1/sGC)
T1 sequence (Q02108 1-690): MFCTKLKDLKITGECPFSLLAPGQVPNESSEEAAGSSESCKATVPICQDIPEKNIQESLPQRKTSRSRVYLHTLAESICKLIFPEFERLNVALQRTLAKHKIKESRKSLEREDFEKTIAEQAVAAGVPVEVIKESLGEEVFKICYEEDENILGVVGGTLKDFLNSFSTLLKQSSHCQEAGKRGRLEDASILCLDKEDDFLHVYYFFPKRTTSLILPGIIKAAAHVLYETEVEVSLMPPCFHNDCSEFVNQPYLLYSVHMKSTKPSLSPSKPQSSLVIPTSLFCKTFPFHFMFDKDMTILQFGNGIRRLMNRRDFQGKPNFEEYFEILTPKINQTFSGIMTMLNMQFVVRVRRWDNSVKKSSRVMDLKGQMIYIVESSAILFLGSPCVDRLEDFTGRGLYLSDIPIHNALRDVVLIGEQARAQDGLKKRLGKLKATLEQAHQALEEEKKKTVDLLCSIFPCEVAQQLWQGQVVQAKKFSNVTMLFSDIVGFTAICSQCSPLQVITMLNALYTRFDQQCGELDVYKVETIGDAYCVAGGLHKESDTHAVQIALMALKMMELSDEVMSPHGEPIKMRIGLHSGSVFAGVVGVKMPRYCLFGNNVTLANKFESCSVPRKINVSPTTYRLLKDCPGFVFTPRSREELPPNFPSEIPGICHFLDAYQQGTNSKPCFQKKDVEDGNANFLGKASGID
T1 sequence (Q02153 1-619): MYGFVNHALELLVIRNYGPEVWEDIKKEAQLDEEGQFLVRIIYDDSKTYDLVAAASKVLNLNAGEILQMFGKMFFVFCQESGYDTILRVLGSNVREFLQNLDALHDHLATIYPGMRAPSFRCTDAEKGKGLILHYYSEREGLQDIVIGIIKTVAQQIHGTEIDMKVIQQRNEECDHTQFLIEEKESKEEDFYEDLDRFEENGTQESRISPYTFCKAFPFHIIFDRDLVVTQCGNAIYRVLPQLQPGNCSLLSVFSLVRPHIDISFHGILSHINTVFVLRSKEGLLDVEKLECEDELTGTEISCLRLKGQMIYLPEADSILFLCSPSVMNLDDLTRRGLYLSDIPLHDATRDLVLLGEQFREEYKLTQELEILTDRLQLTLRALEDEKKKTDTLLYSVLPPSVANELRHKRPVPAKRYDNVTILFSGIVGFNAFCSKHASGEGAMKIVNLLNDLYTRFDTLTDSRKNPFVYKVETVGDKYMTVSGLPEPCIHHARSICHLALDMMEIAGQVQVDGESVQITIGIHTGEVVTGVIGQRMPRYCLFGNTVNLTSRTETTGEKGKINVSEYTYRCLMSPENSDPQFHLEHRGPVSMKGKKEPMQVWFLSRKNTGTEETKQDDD
Test: Cell-based sGC functional assay (CASA assay): cGMP generation in CHO-K1/sGC cells, HTRF detection
Settings: for Emax: CHO-K1, percent activation relative to standard Compound A in CHO-K1/sGC cells, read-out: % Act.; for EC50: inflection point (IP) of cGMP generation in CHO-K1/sGC cells, 4P fit, activity expressed as percentage of Compound A
Procedure, shortened: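 cGMP was quantified by HTRF after 1 hr, 37° C exposure of thawed CHO-K1 cells expressing sGC α1/β1 to compound, with or without 1 μM DETA-NO. IBMX (0.5 mM) blocked cGMP breakdown, and DMSO was 2.5% final. Percent of standard Compound A's maximal cGMP was fitted (4P) for inflection point.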

Structure (SMILES)	Emax [%]	EC50 [nM]	% Act. (percent activation relative to standard Compound A in CHO-K1/sGC cells) [%]
CC1(C2CC2)C(=O)Nc2nc(-c3cn4ccnc4c(Cc4ccccc4)n3)nc(N)c21 (single isomer, unassigned) [Example 82B, 4-amino-2-(8-benzylimidazo[1,2-a]pyrazin-6-yl)-5-cyclopropyl-5-methyl-5H-pyrrolo[2,3-d]pyrimidin-6(7H)-one]	114	473	–
CNc1nc(-c2cn3ccnc3c(CCC(F)(F)C(F)(F)F)n2)nc2c1C(C)(c1ccc(F)cc1)C(=O)N2 (stereo not drawn) [Example 307A, 5-(4-fluorophenyl)-5-methyl-4-(methylamino)-2-(8-(3,3,4,4,4-pentafluorobutyl)imidazo[1,2-a]pyrazin-6-yl)-5H-pyrrolo[2,3-d]pyrimidin-6(7H)-one]	93	152	–
CC(C)C1(c2ccc(Cl)cc2)C(=O)Nc2nc(-c3cn4ccnc4c(CCC(F)(F)F)n3)nc(N)c21 (stereo not drawn) [Example 203B, 4-amino-5-(4-chlorophenyl)-5-isopropyl-2-(8-(3,3,3-trifluoropropyl)imidazo[1,2-a]pyrazin-6-yl)-5H-pyrrolo[2,3-d]pyrimidin-6(7H)-one]	115	1170	–
Cc1cnc(C2(C3CC3)C(=O)Nc3nc(-c4cn5ccnc5c(CCCC(F)(F)F)n4)nc(N)c32)cn1 (single isomer, unassigned) [Example 357B, 4-amino-5-cyclopropyl-5-(5-methylpyrazin-2-yl)-2-(8-(4,4,4-trifluorobutyl)imidazo[1,2-a]pyrazin-6-yl)-5H-pyrrolo[2,3-d]pyrimidin-6(7H)-one]	113	680	–
CC(C)n1cc(C2(C)C(=O)Nc3nc(-c4cn5ccnc5c(CCC(F)(F)C(F)(F)F)n4)nc(N)c32)nn1 (stereo not drawn) [Example 67A, 4-amino-5-(1-isopropyl-1H-1,2,3-triazol-4-yl)-5-methyl-2-(8-(3,3,4,4,4-pentafluorobutyl)imidazo[1,2-a]pyrazin-6-yl)-5H-pyrrolo[2,3-d]pyrimidin-6(7H)-one]	120	746	–
CC1(c2ccc(F)cc2)C(=O)Nc2nc(-c3cn4ccnc4c(Cc4cccc(F)c4)n3)nc(N)c21 (single isomer, unassigned) [Example 90B, 4-amino-2-(8-(3-fluorobenzyl)imidazo[1,2-a]pyrazin-6-yl)-5-(4-fluorophenyl)-5-methyl-5H-pyrrolo[2,3-d]pyrimidin-6(7H)-one]	–	140	129
CCCc1nc(-c2nc(N)c3c(n2)NC(=O)C3(C)c2ccc(OC(F)(F)F)cc2)cn2ccnc12 (stereo not drawn) [Example 24A, 4-amino-5-methyl-2-(8-propylimidazo[1,2-a]pyrazin-6-yl)-5-(4-(trifluoromethoxy)phenyl)-5H-pyrrolo[2,3-d]pyrimidin-6(7H)-one]	104	410	–
CC1(c2ccc(Cl)cc2)C(=O)Nc2nc(-c3cn4ccnc4c(Cc4ccc(F)cc4)n3)nc(N)c21 (stereo not drawn) [Example 99A, 4-amino-5-(4-chlorophenyl)-2-(8-(4-fluorobenzyl)imidazo[1,2-a]pyrazin-6-yl)-5-methyl-5H-pyrrolo[2,3-d]pyrimidin-6(7H)-one]	119	11	–
NC(=O)C1(C2CC2)C(=O)Nc2nc(-c3cn4ccnc4c(Cc4cccc(F)c4)n3)nc(N)c21 (stereo not drawn) [Example 42B, 4-amino-5-cyclopropyl-2-(8-(3-fluorobenzyl)imidazo[1,2-a]pyrazin-6-yl)-6-oxo-6,7-dihydro-5H-pyrrolo[2,3-d]pyrimidine-5-carboxamide]	103	32	–
COc1ccc(-c2nc(-c3nc(N)c4c(n3)NC(=O)C4(C)c3ccc(F)cc3)cn3ccnc23)cc1 (stereo not drawn) [Example 7A, 4-amino-5-(4-fluorophenyl)-2-(8-(4-methoxyphenyl)imidazo[1,2-a]pyrazin-6-yl)-5-methyl-5H-pyrrolo[2,3-d]pyrimidin-6(7H)-one]	63	583	–
CC(C)(C)CCc1nc(-c2nc(N)c3c(n2)NC(=O)C3(C)c2ccc(F)cn2)cn2ccnc12 (stereo not drawn) [Example 122B, 4-amino-2-(8-(3,3-dimethylbutyl)imidazo[1,2-a]pyrazin-6-yl)-5-(5-fluoropyridin-2-yl)-5-methyl-5H-pyrrolo[2,3-d]pyrimidin-6(7H)-one]	119	92	–
CC1(c2ccc(F)cc2)C(=O)Nc2nc(-c3cn4c(C#N)cnc4c(CCC(F)(F)C(F)(F)F)n3)nc(N)c21 (stereo not drawn) [Example 273A, 6-(4-Amino-5-(4-fluorophenyl)-5-methyl-6-oxo-6,7-dihydro-5H-pyrrolo[2,3-d]pyrimidin-2-yl)-8-(3,3,4,4,4-pentafluorobutyl)imidazo[1,2-3a]pyrazine-3-carbonitrile]	81	61	–
Nc1nc(-c2cn3cc(C(F)(F)F)nc3c(Cc3ccccc3)n2)nc2c1C(C(=O)NC1CC1)(C1CC1)C(=O)N2 (stereo not drawn) [Example 51A, 4-amino-2-(8-benzyl-2-(trifluoromethyl)imidazo[1,2-a]pyrazin-6-yl)-N,5-dicyclopropyl-6-oxo-6,7-dihydro-5H-pyrrolo[2,3-d]pyrimidine-5-carboxamide]	93	890	–
CC(C)Cc1nc(-c2nc(N)c3c(n2)NC(=O)C3(C)c2ccc(C(F)(F)F)cc2)cn2ccnc12 (stereo not drawn) [Example 128B, 4-amino-2-(8-isobutylimidazo[1,2-a]pyrazin-6-yl)-5-methyl-5-(4-(trifluoromethyl)phenyl)-5H-pyrrolo[2,3-d]pyrimidin-6(7H)-one]	108	164	–
CC1(c2ccccc2)C(=O)Nc2nc(-c3cn4ccnc4c(Cc4ccccc4)n3)nc(N)c21 (stereo not drawn) [Example 102B, 4-amino-2-(8-benzylimidazo[1,2-a]pyrazin-6-yl)-5-methyl-5-phenyl-5H-pyrrolo[2,3-d]pyrimidin-6(7H)-one]	89	15	–
CC1(c2ccc(Cl)cc2)C(=O)Nc2nc(-c3cn4ccnc4c(Cc4cccc(Cl)c4)n3)nc(N)c21 (stereo not drawn) [Example 95A, 4-amino-2-(8-(3-chlorobenzyl)imidazo[1,2-a]pyrazin-6-yl)-5-(4-chlorophenyl)-5-methyl-5H-pyrrolo[2,3-d]pyrimidin-6(7H)-one]	109	4	–
CC1(c2ccc(Cl)c(F)c2)C(=O)Nc2nc(-c3cn4ccnc4c(CC4CCC4)n3)nc(N)c21 (stereo not drawn) [Example 113B, 4-amino-5-(4-chloro-3-fluorophenyl)-2-(8-(cyclobutylmethyl)imidazo [1,2-a]pyrazin-6-yl)-5-methyl-5H-pyrrolo[2,3-d]pyrimidin-6(7H)-one]	138	5	–
CC1(c2ccc(F)cc2)C(=O)Nc2nc(-c3cn4ccnc4c(CCCc4ccccc4)n3)nc(N)c21 (stereo not drawn) [Example 5A]	109	849	–
CCC1(c2ccc(F)cc2)C(=O)Nc2nc(-c3cn4c(F)cnc4c(CCC(F)(F)C(F)(F)F)n3)nc(N)c21 (stereo not drawn) [Example 276A, 4-Amino-5-ethyl-2-(3-fluoro-8-(3,3,4,4,4-pentafluorobutyl)imidazo[1,2-a]pyrazin-6-yl)-5-(4-fluorophenyl)-5H-pyrrolo[2,3-d]pyrimidin-6(7H)-one]	80	22	–
CCc1nc(C2(C)C(=O)Nc3nc(-c4cn5ccnc5c(CCC(F)(F)C(F)(F)F)n4)nc(N)c32)no1 (stereo not drawn) [Example 320B, 4-amino-5-(5-ethyl-1,2,4-oxadiazol-3-yl)-5-methyl-2-(8-(3,3,4,4,4-pentafluorobutyl)imidazo[1,2-a]pyrazin-6-yl)-5H-pyrrolo[2,3-d]pyrimidin-6(7H)-one]	204	85	–
Cc1cncc(C2(C3CC3)C(=O)Nc3nc(-c4cn5ccnc5c(CCCC(F)(F)F)n4)nc(N)c32)n1 (single isomer, unassigned) [Example 365B, 4-amino-5-cyclopropyl-5-(6-methylpyrazin-2-yl)-2-(8-(4,4,4-trifluorobutyl)imidazo[1,2-a]pyrazin-6-yl)-5H-pyrrolo[2,3-d]pyrimidin-6(7H)-one]	108	704	–
